Patent US8765777B2, “Compositions and methods of use for tyrosine kinase inhibitors to treat pathogenic infection” (priority 2008, dated 2014)
“Also recorded” adds a separate entry of the source.

Key:
[1] = test system: VV (strain WR); format: cell-based, Vaccinia virus
[2] = test system: EPEC (strain 2389/69); assay: EPEC actin pedestal formation on 3T3 cells; format: cell-based, enteropathogenic E. coli
[3] = test system: Abl-tyrosine family kinases; details: Shah et al. (2004) Science 305:399-401; cited from earlier work
[4] = test system: VV; details: 100 mg/kg/day via subcutaneous osmotic pump, 10^4 pfu VV intraperitoneally, four days post infection; FIG. 4
[5] = Tolerability of the drugs in uninfected mice
[6] = test system: VV extracellular enveloped virus (EEV); format: cell-based, Vaccinia virus
[7] = test system: HIV-1 Bal; assay: p24 production of macrophages infected with HIV-1 Bal; format: cell-based
[8] = test system: Mycobacterium tuberculosis (TB); format: cell-based
[9] = test system: VV-WR
[10] = test system: VV; format: cell-based, Vaccinia virus
[11] = test system: GFP-VV; format: cell-based, Vaccinia virus
[12] = up to 100 mg/kg/day i.p., 10 day period

In the case of CC(C)(C)n1nc(-c2ccc(Cl)cc2)c2c(N)ncnc21 [PP2], the “concentrations that blocked actin tails” value [1] is reported as ≥ 25 µM, the “pedestals in Abl−/−/Arg−/− cells” value ([2]; Abl−/−/Arg−/− cells) is reported as “not” and the pedestal formation ([2]; concentrations up to 100 μM, the highest tested) is reported as “without effect”.
For Cc1nc(Nc2ncc(C(=O)Nc3c(C)cccc3Cl)s2)cc(N2CCN(CCO)CC2)n1 [BMS-354825, N-(2-chloro-6-methylphenyl)-2-(6-(4-(2-hydroxyethyl)piperazin-1-yl)-2-methylpryimidin-4-ylamino)thiazole-5-carboxamide], the “potency relative to STI-571” value [3] is given as “two-log increased potency”.
With Cc1ccc(NC(=O)c2ccc(CN3CCN(C)CC3)cc2)cc1Nc1nccc(-c2cccnc2)n1 [STI-571, 4-[(4-Methyl-1-piperazinyl)methyl]-N-[4-methyl-3-[[4-(3-pyridinyl)-2-pyrimidinyl]amino]-phenyl]benzamide methanesulfonate] the “reduction of viral load (copies of VV UDG gene per 250 ng DNA of ovary)” value [4] was 4-5 logs, the actin tail formation [1] was “did not block actin tail formation” and the “average number of actin tails per cell” value [1] was ~3 per cell. For the same molecule, the “cells having no actin tails” value [1] was 30%, the “number of actin tails per cell” value [1] was “no detectable effects” and the “reduction of average number of actin tails per cell” value [1] was 16 fold. For the same molecule, the “viral replication (extranuclear DAPI staining) and transit of GFP-labeled virions to the cell periphery” value [1] was “no effect”, the “VV actin motility, actin tail formation or number” value ([1]; methanesulfonate) was “no discernable effect; also recorded: no difference in actin tail formation or number was evident” and the “weight and other adverse effects in uninfected animals” value ([5]; 100 mg/kg/day, subcutaneously implanted osmotic pumps) was “no loss in weight or other adverse effects”. The tolerability ([5]; intraperitoneal injection, up to 100 mg/kg/day in saline, up to 10 days) was “well tolerated”, the “pathology upon necropsy with drug alone” value [5, 12] was “no overt pathology” and the “weight loss with drug alone” value [5, 12] was “no indication of weight loss”. For the same molecule, the “formation of comets apposed to plaques” value [6] was “blocked the formation”, the “reduction in PFU of supernatant on BSC-40 cells” value [6] was ~2 fold and the EPEC pedestal formation ([2]; 25 μM) was “did not”. The “P24 day 7” value ([7]; Cells + HIV-1 Bal + drug 1 μM, HIV-1 Bal alone 322 +/− 28) was 287 ± 31 pg/mL, the “P24 day 14” value ([7]; Cells + HIV-1 Bal + drug 1 μM, HIV-1 Bal alone 956 +/− 34) was 744 ± 27 pg/mL and the “P24 day 7” value ([7]; Cells + HIV-1 Bal + drug 5 μM) was 212 ± 44 pg/mL. The “P24 day 14” value ([7]; Cells + HIV-1 Bal + drug 5 μM) was 556 ± 28 pg/mL, the “P24 day 7” value ([7]; Cells + HIV-1 Bal + drug 10 μM) was 127 ± 22 pg/mL and the “P24 day 14” value ([7]; Cells + HIV-1 Bal + drug 10 μM) was 245 ± 31 pg/mL. For the same molecule, the “P24 day 7” value ([7]; Cells + drug 1 μM, no virus) was <10 pg/mL, the “P24 day 14” value ([7]; Cells + drug 1 μM, no virus) was <10 pg/mL and the “P24 day 7” value ([7]; Cells + drug 5 μM, no virus) was <10 pg/mL. The “P24 day 14” value ([7]; Cells + drug 5 μM, no virus) was <10 pg/mL, the “P24 day 7” value ([7]; Cells + drug 10 μM, no virus) was <10 pg/mL and the “P24 day 14” value ([7]; Cells + drug 10 μM, no virus) was <10 pg/mL. For the same molecule, the “reduction of viral replication (p24 levels)” value ([7]; dose dependent, 1-10 μM) was “up to 4 fold”, the “intercellular survival of M. tuberculosis” value [8] was “increases the intercellular survival” and the plaque formation [9] was “did inhibit plaque formation”. For the same molecule, the “amount of virus produced (viral replication)” value [10] was “nearly equivalent amounts of virus”.
In the case of Cc1ccc(NC(=O)c2ccc(CN3CCN(Cc4ccccc4)CC3)cc2)cc1Nc1nccc(-c2cccnc2)n1 [STI-X], the actin tail formation [11] is reported as “failed to form actin tails”, the “percentage of cells containing DAPI-stained extranuclear viral replication factories” value [11] is reported as 4% and the “replication centers (DAPI staining or α-Ptyr pAb) and actin motility” value [11] is reported as “still evident; also recorded: no effect”. For the same molecule, the “viral entry (GFP-labeled virions and EVP staining)” value [11] was “little detectable effect on viral entry”, the plaque formation [9] was “reduced” and the “tolerability by the cells in plaque assays” value [9] was “well tolerated”.
